Source: patent US20240165123A1, “USE OF A COMPOUND CONTAINING A TRICYCLIC HETEROARYL GROUP” (CSPC Zhongqi Pharmaceutical Technology (Shijiazhuang) Co., …, priority 2021, published 2024)
Where two headings read alike, the source gives them in different places.

Assays:
[1] = system: IMQ-induced mouse psoriasis model; assay: Pharmacodynamic test in the IMQ-induced mouse psoriasis model; type: in vivo, female Balb/c mice; design: key to Skin PASI score Erythema / Skin PASI score Scaling / Skin PASI score Thickness: PASI component score, 0-4 points; key to Skin PASI Total Score: sum of erythema, scaling, thickness scores (each 0-4); key to Skin pathological score: sum of histopathology criterion points; conditions: Dex 3 mpk PO qd
Source text: The purpose of this test was to evaluate the pharmacodynamics of Compound (I) in the IMQ (5% imiquimod cream cream)-induced mouse psoriasis model. One of the clinical adverse effects of imiquimod is to induce the onset of psoriasis.
• Test medicament: Compound (I) • Positive control medicament: dexamethasone (Dex) • Vehicle: 0.4% Tween 80/0.5% methylcellulose.
• female Balb/c mice aged 5-6 weeks, number: 70.
The animals were randomly divided into seven groups according to the body weights on the day before the start of the experiment.
The animals were shaved on their back one day before applying the medicament, forming a skin exposure area having a size of about 2 cm×3 cm. The mice were induced by IMQ, and applied with 62.5 mg of 5% imiquimod cream on the bare back and the right ear at regular intervals every day for 14 days. Mice in the normal control group were applied with vaseline on the bare back and the right ear at regular intervals every day.
The skin thickness was measured daily from the first day of the test until the end of the test.
The skin thickness measurement method was as follows: the back skin and the subcutaneous tissue of the mouse were pinched with the thumb and the index finger of the left hand in the same direction as the mouse body; the skinfold thickness was measured 1 cm away from the pinched part of the left hand (near the center of the molding part) with a digital thickness gauge (with millesimal reading) held in the right hand (model BK-3281, manufacturer: Shanghai Niuhui). The thickness was in mm, and the actual thickness was the half of the measured thickness (the skin thickness=the measured value/2).
The ear thickness was measured daily (at the center of the auricle).
Skin photographs were taken daily from the first day of the test until the end of the test.
The clinical symptoms were evaluated with the PASI evaluation standard from three indicators of the erythema (Erythema), the scale (Scaling) and the skin thickness (Thickness), and scored with 0-4 points. The total score was obtained by summing the three scores. The PASI evaluation standard was as follows: 0, asymptomatic; 1, mild; 2, moderate; 3, severe; 4, extremely severe.
Erythema: 0—no erythema visible; 1—light red; 2—red; 3—dark red; 4—extremely dark red.
Scaling: 0—no visible scale on the skin surface; 1—part of the skin lesion surface covered with scales; 2—most of the skin lesion surface covered with scales; 3—almost all of the skin lesion region covered with scales; 4—all of the skin lesion region covered with scales.
Dryness and pruritus are not included in the total score.
On the 14th day of the test, the spleen weight was collected.
After the test, all mice were euthanized by excessive inhalation of carbon dioxide. The skin was collected and divided into four parts, one of which was fixed in a tissue fixative solution for 24 hours for the pathological is detection. It was dehydrated, then embedded in paraffin and made into 4-micron sections. Skin sections were stained with hematoxylin eosin to observe the infiltration of the stratum corneum, the epidermal layer, the dermis layer and the inflammatory cell. When measuring the thickness of the epidermal layer, the stained skin sections were scanned with a Leca Aperio CS2 scanner at 200×magnification, and then the histopathological changes were observed and scored.
The specific criteria of the pathological score were as follows: munro microabscess found in the epidermal layer 2.0 points; hyperkeratosis 0.5 points; parakeratosis 1.0 points; the thinning or disappearing of the granular layer 1.0 points; the thickening of acanthosis 1.0 points; the extension and fluctuation of cuticular process 0.5, 1.0 and 1.5 points respectively according to the mild, moderate and severe degrees. […]

[2] = system: OXA-induced Balb/c mouse atopic dermatitis model; assay: Pharmacodynamic test in the OXA-induced mouse atopic dermatitis model; type: in vivo, female Balb/c mice
Source text: The purpose of this test was to evaluate the pharmacodynamics of Compound (I) in the OXA-induced Balb/c mouse atopic dermatitis model. Repeated OXA stimulation of the dorsal skin of mice could produce a long-term inflammatory reaction. This model was closer to the clinical skin inflammation and was a common model for screening and evaluating compounds with anti-inflammatory activity.
Female Balb/c mice aged 8-9 weeks, number: 70
According to the body weight of animals in each group before administration, they were randomly divided into 7 groups with 10 animals in each group.
OXA induction was performed on the 7th day. The induction mode was to apply 5% OXA (dissolved in the acetone/olive oil (4/1) solvent) to the back of mice near the neck in an amount of 10 μL (1.5 cm×1.5 cm). Mice in the normal control group were applied with 10 μL of the acetone/olive oil (4/1) solvent in the same way. From the 1st da to 22nd day, the immunostimulation was performed, and 100 μL of 0.1% OXA (dissolved in the acetone/olive oil (4/1) solvent) was evenly applied on the back of mice near the neck. The application was performed every two days. Mice in the normal control group were applied with 100 μL of the acetone/olive oil (4/1) solvent in the same way. On the day of the immunostimulation, measuring the skin thickness, clinically scoring and photographing were required, and the OXA application was carried out after the above work was completed.
Compound (I) was administered by gavage twice a day (PO, bid) from the 1st to 22nd day. The administration was performed in the morning and completed before measuring the skin thickness, clinically scoring, photographing, and the OXA immunostimulation. The interval between two administrations was 8 hours.
Body weight data were recorded twice a week.
Skin thickness (1.5 cm×1.5 cm, the modeling area) was measured with a Mitutoyo digital indicator (Mitutoyo digimatic indicator, Type ID-C, USA) from the 1st to 22nd day. The measurement was performed every two days. If the skin thickness measurement and the OXA immunostimulation were performed on the same day, the skin thickness measurement would be preferred.
The skin in the modeling area was clinically scored according to the skin scoring criteria in Table 12 from the 1st to 22nd day and evaluated every two days. If the skin clinical scoring and the OXA immunostimulation were performed on the same day, the skin clinical scoring would be preferred.
At the end of the study, the tissue in the modeling area was stained with hematoxylin eosin for the skin pathological scoring and the epidermal thickness measurement.
After the mice were sacrificed, the dorsal skin was removed and fixed in 10% neutral formalin for 24 hours. It was dehydrated, then embedded in paraffin and made into 4-micron sections. The skin sections were stained with hematoxylin eosin, and the inflammatory cell infiltration and tissue changes in the stratum corneum, the epidermis layer and the dermis layer were observed under the microscope, and the pathological scores were made. The scoring criteria were: inflammatory cell aggregation and edema, which were divided into slight 1 point, moderate 2 points, and severe 3 points; telangiectasia, which was divided into slight 1 point, moderate 2 points, and severe 3 points.
The specific scoring criteria of inflammatory cell aggregation were as follows: (1) slight-1 point: inflammatory cells occupied a small amount of <10% of the dermal area of the skin; (2) moderate-2 points: inflammatory cells occupied 10%-50% of the dermal area of the skin; (3) severe-3 points: the inflammatory cells occupied greater than 50% of the dermal area of the skin. […]

[3] = system: MRL/lpr lupus erythematosus model mice; type: in vivo; design: key to Kidney IHC (IgG) pathological score, bilateral kidneys: product score; 0 negative, 1-3 low, 4-8 medium, 9-12 high; conditions: prednisone 6 mg/kg QD
Method: • female MRL/lpr mice aged 4 weeks, number: 50; • female C57BL/6 mice aged 4 weeks, number: 10.
According to the concentration of the serum anti-ds-DNA antibody, female MRL/lpr mice were randomly divided into five groups: model group: solvent (aqueous solution containing 0.4% Tween 80 and 0.5% methylcellulose) 10 mL/kg BID, positive control group: prednisone 6 mg/kg QD, compound (I) 20, 40 and 60 mg/kg BID groups, the administration volumes respectively: 10 mL/kg. In addition, female C57BL/6 mice served as the normal control group. The animals in the Compound (I) group and the model group were administrated with the medicament or the solvent by gavage twice a day starting from the beginning of five weeks of age with an interval of 8 hours between two administrations; prednisone was administered to the animals by gavage once a day from the beginning of five weeks of age; the administration was totally performed for 17 weeks.
Two mice in the model group died at 15 and 16 weeks of administration, respectively, and 8 mice remained at the end of the test; one mouse in the compound (I) 20 mg/kg bid group died in the later period of the 16th week of administration, and 9 mice remained at the end of the test; and no death of mice occurred in other groups.
The skin destructions on the face, ears and back of mice were observed and scored once a week for 17 times totally.
Scoring system: 1) red swelling and bleeding of the skin; 2) the extent of hair loss and skin dryness; 3) edema; 4) excoriation/corrosion; 5) lichenoid sclerotic plaque and other symptoms. The score of each item was as follows: normal=0 points; slight=1 point; moderate=2 points; severe=3 points. The severity of skin destruction was determined according to the total score of each evaluated symptom. […]
The lymph nodes of MRL/lpr mice were scored once a week for a total of 17 times during the test.
According to the lymph node diameter (cm), the score values were 0-6 points: • 0 point: normal; • 1 point: small (the diameter at one location of points on both sides was less than 1 cm); • 2 points: small (the diameters at two location of points on both sides were less than 1 cm); • 3 points: small (the diameters at three location of points on both sides were less than 1 cm); • 4 points: large (the diameter at one location of points on both sides was larger than 1 cm, the diameters at the other two location of points on both sides were less than 1 cm); • 5 points: large (the diameters at two location of points on both sides were larger than 1 cm, and the diameter at the other location of points on both sides was less than 1 cm); • 6 points: large (the diameters at three location of points on both sides were greater than 1 cm). […]
Kidney HE scoring criteria: […]
During the test, the concentration of serum anti-ds-DNA antibody of mice were detected every 4 weeks for 16 weeks.
At the end of the test, the serum cytokine levels of mice were detected by ELISA. […] See Table 25 and FIG. 17 for details.

[4] = Dexamethasone 3 mpk PO qd, 1st Day

## C[C@@H]1C[C@H]2[C@@H]3CCC4=CC(=O)C=C[C@]4(C)[C@@]3(F)[C@@H](O)C[C@]2(C)[C@@]1(O)C(=O)CO [Dexamethasone, reference compound]
[1]; 1st Day
  Ear thickness Left: 0.14 ± 0.00 mm
  Ear thickness Right: 0.14 ± 0.00 mm
  Ear thickness Right-Left: 0.00 ± 0.00 mm
  Skin PASI Total Score: 0.00 ± 0.00
  Skin PASI score Erythema: 0.00 ± 0.00
  Skin PASI score Scaling: 0.00 ± 0.00
  Skin PASI score Thickness: 0.00 ± 0.00
  Skin thickness: 0.32 ± 0.00 mm
[1]; 14th Day
  Ear thickness Left: 0.15 ± 0.00 mm
  Ear thickness Right: 0.33 ± 0.01 mm
  Ear thickness Right-Left: 0.18 ± 0.00 mm
  Skin PASI Total Score: 4.10 ± 0.18
  Skin PASI score Erythema: 2.10 ± 0.10
  Skin PASI score Scaling: 1.10 ± 0.10
  Skin PASI score Thickness: 0.90 ± 0.10
  Skin thickness: 0.32 ± 0.01 mm
[1]; after 14 days of treatment
  Epidermal thickness: 84.98 ± 7.40 μm
  IL-6 content in skin (ELISA): 607.20 ± 76.89 pg/g
  Skin pathological score: 3.95 ± 0.50
  Spleen weight: 93.79 ± 4.64 mg
  Spleen weight/body weight (spleen index): 6.17 ± 0.29 mg/g
  TNF-alpha content in skin (ELISA): 1172.53 ± 115.72 pg/g
[2]; [4]
  Body weight: 18.08 ± 0.12 g
  Skin clinical score: 0.4 ± 0.16
[2]; Dexamethasone 3 mpk PO qd, 1st day
  Skin thickness (modeling area): 0.532 ± 0.012 mm
[2]; Dexamethasone 3 mpk PO qd, −7th Day
  Body weight: 18.08 ± 0.12 g
[2]; dexamethasone 3 mpk PO qd, end of the study
  Influence on the body weight of mice: decreased significantly

## C[C@]12C=CC(=O)C=C1CC[C@@H]1[C@@H]2C(=O)C[C@@]2(C)[C@H]1CC[C@]2(O)C(=O)CO [prednisone, reference compound]
[3]; 16 weeks
  Area under the urine protein curve: 2360.38 ± 161.30 wk*mg/L
[3]; after 17 weeks of treatment
  Kidney HE pathological score of both kidneys, Activity index: 1.80 ± 0.36
  Kidney HE pathological score of both kidneys, Chronicity index: 4.90 ± 0.62
  Kidney HE pathological score of both kidneys, Tubulointerstitial lesions: 3.60 ± 0.45
  Kidney IHC (IgG) pathological score, bilateral kidneys: 7.90 ± 0.77
  Skin HE pathological score: 1.80 ± 0.36
  Total kidney weight: 0.3526 ± 0.01 g
  Total kidney weight/body weight %: 1.1050 ± 0.04%
[3]; end of the test
  IL-6 concentration in serum (ELISA): 19.91 ± 10.43 pg/mL
  Spleen weight: 0.0756 ± 0.01 g
  Spleen weight/body weight %: 0.2362 ± 0.03 %
  TNF-alpha concentration in serum (ELISA): 5.50 ± 1.13 pg/mL
  Total lymph node weight: 0.1123 ± 0.03 g
  Total lymph node weight/body weight %: 0.3445 ± 0.08 %
[3]; week 0
  Concentration of serum anti-ds-DNA antibody: 3.26 ± 0.30 µg/mL
  Lymph node score: 0.0 ± 0.00
  Skin score (skin destruction): 0.0 ± 0.00
[3]; week 4
  Concentration of serum anti-ds-DNA antibody: 183.55 ± 28.07 µg/mL
  Skin score (skin destruction): 0.0 ± 0.00
[3]; week 6
  Lymph node score: 0.0 ± 0.00
[3]; week 7
  Lymph node score: 0.2 ± 0.13
[3]; week 8
  Concentration of serum anti-ds-DNA antibody: 363.75 ± 18.45 µg/mL
  Skin score (skin destruction): 0.3 ± 0.15
[3]; week 9
  Lymph node score: 0.3 ± 0.15
[3]; week 11
  Lymph node score: 0.0 ± 0.00
[3]; week 12
  Concentration of serum anti-ds-DNA antibody: 619.78 ± 25.47 µg/mL
  Lymph node score: 0.0 ± 0.00
  Skin score (skin destruction): 0.3 ± 0.15
[3]; week 14
  Skin score (skin destruction): 0.2 ± 0.13
[3]; week 16
  Concentration of serum anti-ds-DNA antibody: 606.66 ± 26.65 µg/mL
  Skin score (skin destruction): 0.1 ± 0.10
[3]; week 17
  Lymph node score: 0.0 ± 0.00
  Skin score (skin destruction): 0.1 ± 0.10
